From PubChem BioAssay AID1963826 (Molecular Pharmacology Branch, DTP, NCI, 2024)

Tested on: 926638-142-R-J1-PDC complex spheroid viability
Assay: Anticancer human tumor 926638-142-R-J1-PDC patient-derived endometrial carcinoma cell line growth inhibition [POLQ]
Conditions: for IC50: curve of first compound; for viability, T/C: stronger effect = lower value
Method in brief: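 Patient-derived tumour cells were co-cultured with HUVEC and mesenchymal stem cells as multicellular spheroids at 37 °C. They were treated with POLQ inhibitors (novobiocin, ART-558, RP6685) alone or combined with other agents. Top concentrations were at or near clinical Cmax (otherwise 10 microM; SN-38 at 1 microM), decreasing in half-log steps.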

[1] = second compound 0.0316 µM, first compound 0.0316 µM
[2] = second compound 0.0316 µM, first compound 0.1 µM
[3] = second compound 0.0316 µM, first compound 0.316 µM
[4] = second compound 0.0316 µM, first compound 1 µM
[5] = second compound 0.0316 µM, first compound 3.16 µM
[6] = second compound 0.0316 µM, first compound 10 µM
[7] = second compound 0.1 µM, first compound 0.0316 µM
[8] = second compound 0.1 µM, first compound 0.1 µM
[9] = second compound 0.1 µM, first compound 0.316 µM
[10] = second compound 0.1 µM, first compound 1 µM
[11] = second compound 0.1 µM, first compound 3.16 µM
[12] = second compound 0.1 µM, first compound 10 µM
[13] = second compound 0.316 µM, first compound 0.0316 µM
[14] = second compound 0.316 µM, first compound 0.1 µM
[15] = second compound 0.316 µM, first compound 0.316 µM
[16] = second compound 0.316 µM, first compound 1 µM
[17] = second compound 0.316 µM, first compound 3.16 µM
[18] = second compound 0.316 µM, first compound 10 µM
[19] = second compound 1 µM, first compound 0.0316 µM
[20] = second compound 1 µM, first compound 0.1 µM
[21] = second compound 1 µM, first compound 0.316 µM
[22] = second compound 1 µM, first compound 1 µM
[23] = second compound 1 µM, first compound 3.16 µM
[24] = second compound 1 µM, first compound 10 µM
[25] = second compound 3.16 µM, first compound 0.0316 µM
[26] = second compound 3.16 µM, first compound 0.1 µM
[27] = second compound 3.16 µM, first compound 0.316 µM
[28] = second compound 3.16 µM, first compound 1 µM
[29] = second compound 3.16 µM, first compound 3.16 µM
[30] = second compound 3.16 µM, first compound 10 µM
[31] = second compound 10 µM, first compound 0.0316 µM
[32] = second compound 10 µM, first compound 0.1 µM
[33] = second compound 10 µM, first compound 0.316 µM
[34] = second compound 10 µM, first compound 1 µM
[35] = second compound 10 µM, first compound 3.16 µM
[36] = second compound 10 µM, first compound 10 µM
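Also: spheroids exposed to drugs for one week before readout.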
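For viability, T/C in this document: percent viability relative to DMSO vehicle control wells set as 100%.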

COc1cc2cc(C(=O)CCC(=O)O)sc2cc1OC + COC1C(OC(N)=O)C(O)C(Oc2ccc3c(O)c(NC(=O)c4ccc(O)c(CC=C(C)C)c4)c(=O)oc3c2C)OC1(C)C
IC50 (second compound 0.0316 µM): > 10 µM
IC50 (second compound 0.1 µM): > 10 µM
IC50 (second compound 0.316 µM): > 10 µM
IC50 (second compound 1 µM): > 10 µM
IC50 (second compound 3.16 µM): > 10 µM
IC50 (second compound 10 µM): > 10 µM
viability, T/C [1]: 93.6%
viability, T/C [2]: 98.3%
viability, T/C [3]: 87.9%
viability, T/C [4]: 106%
viability, T/C [5]: 99.6%
viability, T/C [6]: 104%
viability, T/C [7]: 85.9%
viability, T/C [8]: 97.5%
viability, T/C [9]: 98.2%
viability, T/C [10]: 86.4%
viability, T/C [11]: 94.3%
viability, T/C [12]: 101%
viability, T/C [13]: 105%
viability, T/C [14]: 113%
viability, T/C [15]: 88.1%
viability, T/C [16]: 110%
viability, T/C [17]: 91.6%
viability, T/C [18]: 110%
viability, T/C [19]: 86.7%
viability, T/C [20]: 93%
viability, T/C [21]: 94.5%
viability, T/C [22]: 97.9%
viability, T/C [23]: 97.7%
viability, T/C [24]: 111%
viability, T/C [25]: 99.2%
viability, T/C [26]: 101%
viability, T/C [27]: 103%
viability, T/C [28]: 89.3%
viability, T/C [29]: 81.1%
viability, T/C [30]: 75.1%
viability, T/C [31]: 98.4%
viability, T/C [32]: 109%
viability, T/C [33]: 102%
viability, T/C [34]: 106%
viability, T/C [35]: 81.1%
viability, T/C [36]: 99.7%

O=C(Nc1ccc(O)c(NS(=O)(=O)c2ccc(F)cc2)c1)c1ccc(-c2ccccc2)cc1 + COC1C(OC(N)=O)C(O)C(Oc2ccc3c(O)c(NC(=O)c4ccc(O)c(CC=C(C)C)c4)c(=O)oc3c2C)OC1(C)C
IC50 (second compound 0.0316 µM): > 10 µM
IC50 (second compound 0.1 µM): > 10 µM
IC50 (second compound 0.316 µM): > 10 µM
IC50 (second compound 1 µM): > 10 µM
IC50 (second compound 3.16 µM): > 10 µM
IC50 (second compound 10 µM): > 10 µM
viability, T/C [1]: 89.2%
viability, T/C [2]: 87.5%
viability, T/C [3]: 109%
viability, T/C [4]: 99.4%
viability, T/C [5]: 103%
viability, T/C [6]: 69.1%
viability, T/C [7]: 91%
viability, T/C [8]: 96.8%
viability, T/C [9]: 98.6%
viability, T/C [10]: 101%
viability, T/C [11]: 94.8%
viability, T/C [12]: 87.3%
viability, T/C [13]: 108%
viability, T/C [14]: 101%
viability, T/C [15]: 82.2%
viability, T/C [16]: 101%
viability, T/C [17]: 94.8%
viability, T/C [18]: 66%
viability, T/C [19]: 90.6%
viability, T/C [20]: 88.4%
viability, T/C [21]: 89.6%
viability, T/C [22]: 98.3%
viability, T/C [23]: 99.9%
viability, T/C [24]: 80.9%
viability, T/C [25]: 108%
viability, T/C [26]: 88.3%
viability, T/C [27]: 94.5%
viability, T/C [28]: 118%
viability, T/C [29]: 94.6%
viability, T/C [30]: 85.7%
viability, T/C [31]: 97.7%
viability, T/C [32]: 103%
viability, T/C [33]: 93.8%
viability, T/C [34]: 94.7%
viability, T/C [35]: 104%
viability, T/C [36]: 69.4%

CC(=O)O[C@H]1C(=O)[C@@]2(C)[C@H]([C@H](OC(=O)c3ccccc3)[C@]3(O)C[C@H](OC(=O)[C@H](O)[C@@H](NC(=O)c4ccccc4)c4ccccc4)C(C)=C1C3(C)C)[C@]1(OC(C)=O)CO[C@@H]1C[C@@H]2O + Cc1cccc(N(C)C(=O)C2C(O)CCN2c2nc(C)cc(C(F)(F)F)c2C#N)c1
IC50 (second compound 0.0316 µM): 0.659 µM
IC50 (second compound 0.1 µM): > 3 µM
IC50 (second compound 0.316 µM): 0.8 µM
IC50 (second compound 1 µM): 2.38 µM
IC50 (second compound 3.16 µM): 1.3 µM
IC50 (second compound 10 µM): 0.817 µM
viability, T/C (second compound 0.0316 µM, first compound 0.00949 µM): 88.1%
viability, T/C (second compound 0.0316 µM, first compound 0.03 µM): 62.9%
viability, T/C (second compound 0.0316 µM, first compound 0.0949 µM): 56.8%
viability, T/C (second compound 0.0316 µM, first compound 0.3 µM): 56.1%
viability, T/C (second compound 0.0316 µM, first compound 0.949 µM): 53.9%
viability, T/C (second compound 0.0316 µM, first compound 3 µM): 41.5%
viability, T/C (second compound 0.1 µM, first compound 0.00949 µM): 87.5%
viability, T/C (second compound 0.1 µM, first compound 0.03 µM): 65.8%
viability, T/C (second compound 0.1 µM, first compound 0.0949 µM): 62.1%
viability, T/C (second compound 0.1 µM, first compound 0.3 µM): 52.4%
viability, T/C (second compound 0.1 µM, first compound 0.949 µM): 58.3%
viability, T/C (second compound 0.1 µM, first compound 3 µM): 51.4%
viability, T/C (second compound 0.316 µM, first compound 0.00949 µM): 79.2%
viability, T/C (second compound 0.316 µM, first compound 0.03 µM): 77%
viability, T/C (second compound 0.316 µM, first compound 0.0949 µM): 66.8%
viability, T/C (second compound 0.316 µM, first compound 0.3 µM): 56.1%
viability, T/C (second compound 0.316 µM, first compound 0.949 µM): 50.5%
viability, T/C (second compound 0.316 µM, first compound 3 µM): 43.2%
viability, T/C (second compound 1 µM, first compound 0.00949 µM): 76.3%
viability, T/C (second compound 1 µM, first compound 0.03 µM): 68.6%
viability, T/C (second compound 1 µM, first compound 0.0949 µM): 61.7%
viability, T/C (second compound 1 µM, first compound 0.3 µM): 57.6%
viability, T/C (second compound 1 µM, first compound 0.949 µM): 67.2%
viability, T/C (second compound 1 µM, first compound 3 µM): 43.1%
viability, T/C (second compound 3.16 µM, first compound 0.00949 µM): 70.6%
viability, T/C (second compound 3.16 µM, first compound 0.03 µM): 61%
viability, T/C (second compound 3.16 µM, first compound 0.0949 µM): 55.4%
viability, T/C (second compound 3.16 µM, first compound 0.3 µM): 55.4%
viability, T/C (second compound 3.16 µM, first compound 0.949 µM): 57%
viability, T/C (second compound 3.16 µM, first compound 3 µM): 43.8%
viability, T/C (second compound 10 µM, first compound 0.00949 µM): 72.8%
viability, T/C (second compound 10 µM, first compound 0.03 µM): 63.2%
viability, T/C (second compound 10 µM, first compound 0.0949 µM): 55.9%
viability, T/C (second compound 10 µM, first compound 0.3 µM): 57.5%
viability, T/C (second compound 10 µM, first compound 0.949 µM): 50.8%
viability, T/C (second compound 10 µM, first compound 3 µM): 44.2%
